The test system of one experiment is Kv3.3 mRNA. The experiment is described as follows: Experiment 2: in situ hybridisation of Kv3.3 mRNA in rat brain after chronic intermittent PCP (YRING model). Type of experiment: in vivo. How it is done: (§1) In a second experiment using different method for in situ hybridisation, the effect of chronic PCP treatment on Kv3.1, Kv3.2 and Kv3.3 mRNA were examined. […] Animals were treated according to the YRING model (FIG. 1) and killed by cervical dislocation 72 hours after the last exposure to PCP. The brains were stored at −70° C. until required.
(§2) 20 μm coronal sections were cut on a cryostat at −20° C. and collected onto poly-L-lysine coated slides. The sections were fixed, dehydrated and stored under ethanol at 4° C. until required. […] On the day of in situ hybridization, the sections from the chronic study were allowed to dry at room temperature then hybridized with the appropriate probe overnight at 42° C. The sections were then washed, dehydrated and air-dried before being exposed to x-ray film for 7-10 days.
(§3) The quantification of mRNA expression was carried out using computer-based densitometry (MCID 5). Bilateral relative optical density measurements were taken from duplicate sections from each animal (n=8-10 per treatment group for the chronic study). The results were analyzed using individual t-tests for each brain region. Statistical significance was defined as p<0.05, again after correction for multiple comparisons using the sequential Bonferroni correction factor.

The next experiment deals with Kv3.2 mRNA. The experiment is described as follows: Experiment 2: in situ hybridisation of Kv3.2 mRNA in rat brain after chronic intermittent PCP (YRING model). The class given is in vivo. Here is the method: as §1, §2, §3
Another experiment concerns Kv3.1 α-subunit mRNA. Description: Experiment 1: in situ hybridization of Kv3.1 α-subunit mRNA in brain, chronic PCP rat model of schizophrenia with antipsychotic co-treatment. The class given is in vivo. The note with it: for Kv3.1 α-subunit mRNA expression: PCP-Veh (PCP 2.24 mg/kg i.p.).
The next experiment deals with Kv3.1 mRNA. Description: Experiment 2: in situ hybridisation of Kv3.1 mRNA in rat brain after chronic intermittent PCP (YRING model). Type of experiment: in vivo. How it is done:
as §1, §2, §3

The subject of another experiment is schizophrenia. Conditions: patients; cited from earlier work.
The mark [1] stands for this setting: ventral part of the reticular thalamic nucleus.

Each structure is given as a SMILES string.

Take `c1ccc(C2(N3CCCCC3)CCCCC2)cc1` [PCP, phencyclidine]: the “change in Kv3.3 mRNA expression after chronic intermittent PCP” value with Kv3.3 mRNA (anterodorsal thalamic nucleus) is reported as “+21%”; in the experiment on Kv3.3 mRNA (prelimbic cortex), “+18%”; in the experiment on Kv3.3 mRNA (ventral orbital cortex), “+14%”; in the experiment on Kv3.3 mRNA (setting [1]), “+33%”. For the same molecule, the “Kv3.3 mRNA expression change after chronic intermittent PCP” value in the experiment with Kv3.3 mRNA (regions other than prelimbic, ventral orbital cortex, AD, vRt) is reported as “No other changes were observed in any other regions”. For the same molecule, the “change in Kv3.2 mRNA expression after chronic intermittent PCP” value is listed as −9% in the experiment on Kv3.2 mRNA (anteromedial thalamic nucleus), “+16%” in the experiment with Kv3.2 mRNA (prelimbic cortex) and “+13%” in the experiment with Kv3.2 mRNA (primary motor cortex). For the same molecule, in the experiment with Kv3.2 mRNA (regions other than prelimbic cortex, primary motor cortex, anteromedial thalamic nucleus), the “Kv3.2 mRNA expression change after chronic intermittent PCP” value was “No significant changes were observed”. The “Kv3.1 α-subunit mRNA expression” value worked out at 15.01 PSL/mm^2 in the experiment on Kv3.1 α-subunit mRNA (ACg); 8.48 PSL/mm^2 in the experiment with Kv3.1 α-subunit mRNA (AcbC); 10.62 PSL/mm^2 in the experiment with Kv3.1 α-subunit mRNA (AcbS); 18.08 PSL/mm^2 in the experiment on Kv3.1 α-subunit mRNA (Au1); 15.90 PSL/mm^2 in the experiment with Kv3.1 α-subunit mRNA (CA1pd); 18.61 PSL/mm^2 in the experiment with Kv3.1 α-subunit mRNA (CA2pd). Moreover, the “Kv3.1 α-subunit mRNA expression” value was 32.94 PSL/mm^2 in the experiment on Kv3.1 α-subunit mRNA (CA3pd); 38.63 PSL/mm^2 with Kv3.1 α-subunit mRNA (DGgd); 5.87 PSL/mm^2 in the experiment with Kv3.1 α-subunit mRNA (DLStr); 12.28 PSL/mm^2 in the experiment with Kv3.1 α-subunit mRNA (IL); 16.48 PSL/mm^2 in the experiment with Kv3.1 α-subunit mRNA (IO); 15.88 PSL/mm^2 in the experiment on Kv3.1 α-subunit mRNA (M1). Besides, the “Kv3.1 α-subunit mRNA expression” value in the experiment with Kv3.1 α-subunit mRNA (M2) was 14.38 PSL/mm^2; with Kv3.1 α-subunit mRNA (MG), 26.93 PSL/mm^2; in the experiment on Kv3.1 α-subunit mRNA (MM), 24.34 PSL/mm^2; in the experiment on Kv3.1 α-subunit mRNA (Pir), 40.65 PSL/mm^2; in the experiment on Kv3.1 α-subunit mRNA (PrL), 9.83 PSL/mm^2; with Kv3.1 α-subunit mRNA (RSa) it was 17.96 PSL/mm^2. Further, the “Kv3.1 α-subunit mRNA expression” value was found to be 20.38 PSL/mm^2 in the experiment with Kv3.1 α-subunit mRNA (RSg); 12.82 PSL/mm^2 in the experiment with Kv3.1 α-subunit mRNA (SN); 6.15 PSL/mm^2 with Kv3.1 α-subunit mRNA (VMStr); 19.85 PSL/mm^2 in the experiment on Kv3.1 α-subunit mRNA (VO); 48.80 PSL/mm^2 in the experiment on Kv3.1 α-subunit mRNA (dRt); 45.07 PSL/mm^2 in the experiment on Kv3.1 α-subunit mRNA (vRt). Further, the entries for the “change in Kv3.1 α-subunit mRNA expression after chronic PCP treatment” value with Kv3.1 α-subunit mRNA (dorsal part of the reticular nucleus of the thalamus (dRt)), in the experiment on Kv3.1 α-subunit mRNA (dorsolateral striatum (DLStr)) and in the experiment with Kv3.1 α-subunit mRNA (prelimbic region of the prefrontal cortex (PrL)) were −15%, −16% and −31%, respectively. For the same molecule, the “change in Kv3.1 mRNA expression after chronic intermittent PCP” value is listed as −23% in the experiment with Kv3.1 mRNA (prelimbic cortex) and −19% in the experiment on Kv3.1 mRNA (setting [1]). The “Kv3.1 mRNA expression change after chronic intermittent PCP” value in the experiment on Kv3.1 mRNA (regions other than prelimbic cortex and vRt) is recorded as “No other changes were observed in any other regions”.
As for `O=C(CCCN1CCC(O)(c2ccc(Cl)cc2)CC1)c1ccc(F)cc1` [haloperidol], in the experiment with schizophrenia, the “action against the negative symptoms and cognitive dysfunction of schizophrenia” value was “ineffective”; the “attenuating the positive symptoms of schizophrenia” value is given as “effective”.

Source of the values: patent publication US20030224416A1, “Schizophrenia related gene” (priority 2002, published 2003).
